From patent US20230310427A1, “NEW THERAPEUTIC USE OF RILPIVIRINE” (UNIVERSITY OF SOUTH AUSTRALIA, priority 2020, published 2023)

What was measured:
[1] = test system: Leukemia (HL-60, U-937, NB4, Jurkat, K-562), ovarian (A2780), prostate (PC3) and breast (T47D) cancer cell lines; test: Cell viability assays (MTT and resazurin); format: cell-based; conditions: 72 hour treatment; range over all cell lines tested; read-out: IC50, inhibition of cancer cell proliferation
Source text: The MTT (3-(4,5-dimethylthiazol-2-yl)-2,5-diphenyl tetrazolium bromide; Sigma-Aldrich, St Louis, MO, United States of America) assay was used to determine half maximal inhibition values (IC50) in response to drug treatment using a number of different adherent cancer cell lines. The MTT was converted by metabolically active cells into an insoluble formazan product which was solubilised with 100% DMSO. The solubilised formazan gives absorbance at 560 nm which is directly proportional to the number of viable cells. The assay was carried out as previously described (Wang S et al., J Med Chem 47(7):1662-1675, 2004). The absorbance of treated wells was read using an EnVision multi-label plate reader. The resazurin assay was carried out for non-adherent cell lines as reported previously (Yu M et al., EJMC 95:116-126, 2015). IC50 values were determined by non-linear regression analysis using GraphPad Prism software.

[2] = molecular target: T1, Aurora A kinase (Homo sapiens, UniProt O14965); test: Kinase assay; format: biochemical
T1 construct: purchased Promega (ADP-Glo kits) or Reaction Biology Corporation / Eurofins discovery services (external)
T1 sequence (O14965 1-403): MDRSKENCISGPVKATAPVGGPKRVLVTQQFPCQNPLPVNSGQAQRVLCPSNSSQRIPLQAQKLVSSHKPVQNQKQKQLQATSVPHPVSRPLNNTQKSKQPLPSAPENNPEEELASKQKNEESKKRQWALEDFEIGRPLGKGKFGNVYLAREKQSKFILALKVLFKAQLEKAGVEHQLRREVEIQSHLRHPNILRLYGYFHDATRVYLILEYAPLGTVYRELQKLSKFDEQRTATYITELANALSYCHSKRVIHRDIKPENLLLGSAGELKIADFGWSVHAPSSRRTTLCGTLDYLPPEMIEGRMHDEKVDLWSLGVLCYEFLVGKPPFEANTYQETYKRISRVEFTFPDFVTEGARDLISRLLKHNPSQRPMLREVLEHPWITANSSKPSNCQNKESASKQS
Protocol: (§1) The ability of compounds to inhibit kinases was measured using ADP-Glo^Tm assay kits (Promega, Madison, WI, United States of America) or externally using radioisotope based assays (Reaction Biology Corporation, Malvern, PA, United States of America and Eurofins discovery services, France). The ADP-Glo assay was performed as reported previously (Basnet SK et al., Mol Pharmacol 88(5):935-948, 2015).The assay plate was read for luminescence using Envision multi-label plate reader (PerkinElmer, Waltham, MA, United States of America). Half-maximal inhibition (IC50) values were determined from a plot of percent residual activity versus concentration of test compounds using GraphPad Prism software. Ki values were calculated from IC50 values using the Cheng-Prusoff equation: Ki= IC50/ [1 + ([ATP]/Km ATP)], where [ATP] is the ATP concentration used for the IC50 determination and Km ATP for each kinase is determined from an individual experiment.

[3] = molecular target: T2, Aurora B kinase (Homo sapiens, UniProt Q96GD4); test: Kinase assay; format: biochemical; conditions: kinase inhibition profiling (FIG. 2), concentration of 10 µM
T2 construct: purchased Promega (ADP-Glo kits) or Reaction Biology Corporation / Eurofins discovery services (external)
Protocol: as §1

[4] = molecular target: T3, FLT3 (Homo sapiens, UniProt P36888); test: Kinase assay; format: biochemical; conditions: kinase inhibition profiling (FIG. 2), concentration of 10 µM
T3 construct: purchased Promega (ADP-Glo kits) or Reaction Biology Corporation / Eurofins discovery services (external)
Protocol: as §1

[5] = molecular target: T4, JAK1 (Homo sapiens, UniProt P23458); test: Kinase assay; format: biochemical; conditions: kinase inhibition profiling (FIG. 2), concentration of 10 µM
T4 construct: purchased Promega (ADP-Glo kits) or Reaction Biology Corporation / Eurofins discovery services (external)
Protocol: as §1

[6] = molecular target: T5, LYN (Homo sapiens, UniProt P07948); test: Kinase assay; format: biochemical; conditions: expanded panel, read-out: percent inhibition
T5 construct: purchased Promega (ADP-Glo kits) or Reaction Biology Corporation / Eurofins discovery services (external)
Protocol: as §1

[7] = molecular target: T6, PIM1 (Homo sapiens, UniProt P11309); test: Kinase assay; format: biochemical
T6 construct: purchased Promega (ADP-Glo kits) or Reaction Biology Corporation / Eurofins discovery services (external)
Protocol: as §1

[8] = molecular target: T7, YES kinase (Homo sapiens, UniProt P07947); test: Kinase assay; format: biochemical; conditions: expanded panel, read-out: percent inhibition
T7 construct: purchased Promega (ADP-Glo kits) or Reaction Biology Corporation / Eurofins discovery services (external)
Protocol: as §1

[9] = test system: HL-60 cells; test: Cell cycle analysis (flow cytometry); format: cell-based
Protocol: (§2) The effect of Rilpivirine on cell cycle distribution in different cancer cell lines was evaluated by flow cytometric analysis. Briefly, cells were seeded in 6-well plates at a density of 6 × 10^4 cells/well. All plates were incubated overnight at 37° C. in a 5% CO2 incubator. Following the incubation, the test compounds (Rilpivirine (Ril) and comparators, Alisertib (Ali; a known Aurora A inhibitor) and Etravirine (Etra; 4-[[6-amino-5-bromo-2-[(4-cyanophenyl)amino]-4-pyrimidinyl]oxy]-3,5-dimethylbenzonitrile - a structurally similar NNRTI drug compound sold under the brand name Intelence® (Janssen Therapeutics)) were added to individual wells and the plates were incubated at same condition for 24 h, 48 h or 72 h. Subsequently, the medium was removed from the wells and transferred into fluorescence-activated cell sorting (FACS) tubes. The adherent cells remaining were trypsinised, re-suspended in media and transferred into the FACS tubes. Cells were centrifuged, fixed with cold 70% ethanol for 15 min and pelleted. The pelleted cells were then re-suspended in 200 µL propidium iodide (PI) solution (50 µg/mL propidium iodide, 0.1 mg/mL ribonuclease A, 0.1% sodium citrate, 0.1% triton X-100) and incubated in the dark for 1.5 h at room temperature. Following the incubation, 200 µL PBS was added. Samples were assessed using a flow cytometer (Cytoflex; Beckman Coulter Inc, Brea, CA, United States of America) and data were analysed using the Cytexpert software.

[10] = test system: K-562 cells; test: Cell cycle analysis (flow cytometry); format: cell-based; conditions: various concentrations, 24 hour
Protocol: as §2

[11] = test system: Miapaca-2 (pancreatic) cancer cell lines; test: Cell cycle analysis (flow cytometry); format: cell-based; conditions: 48 hours; data not shown
Protocol: as §2

[12] = test system: PC3 cells; test: Cell cycle analysis (flow cytometry); format: cell-based; conditions: 48 hour treatment; p53 mutant
Protocol: as §2

[13] = test system: T47D cells; test: Cell cycle analysis (flow cytometry); format: cell-based; conditions: 48-hour treatment; p53 mutant
Protocol: as §2

[14] = test system: p53 wild-type (WT) A2780 cells; test: Cell cycle analysis (flow cytometry); format: cell-based; conditions: 24, 48 and 72 hour
Protocol: as §2

[15] = 1 µM, expanded panel, read-out: percent inhibition
[16] = kinase inhibition profiling (FIG. 2), concentration of 10 µM

T6 sequence (P11309 whole entry): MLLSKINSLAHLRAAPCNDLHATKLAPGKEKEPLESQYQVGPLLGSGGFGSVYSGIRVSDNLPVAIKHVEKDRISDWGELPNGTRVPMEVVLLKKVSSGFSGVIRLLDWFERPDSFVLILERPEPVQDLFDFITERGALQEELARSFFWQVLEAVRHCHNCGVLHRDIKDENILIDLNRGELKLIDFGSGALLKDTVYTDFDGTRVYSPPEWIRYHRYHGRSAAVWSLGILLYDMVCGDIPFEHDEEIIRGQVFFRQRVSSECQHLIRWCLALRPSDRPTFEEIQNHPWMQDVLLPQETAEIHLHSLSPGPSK
T5 sequence (P07948 whole entry): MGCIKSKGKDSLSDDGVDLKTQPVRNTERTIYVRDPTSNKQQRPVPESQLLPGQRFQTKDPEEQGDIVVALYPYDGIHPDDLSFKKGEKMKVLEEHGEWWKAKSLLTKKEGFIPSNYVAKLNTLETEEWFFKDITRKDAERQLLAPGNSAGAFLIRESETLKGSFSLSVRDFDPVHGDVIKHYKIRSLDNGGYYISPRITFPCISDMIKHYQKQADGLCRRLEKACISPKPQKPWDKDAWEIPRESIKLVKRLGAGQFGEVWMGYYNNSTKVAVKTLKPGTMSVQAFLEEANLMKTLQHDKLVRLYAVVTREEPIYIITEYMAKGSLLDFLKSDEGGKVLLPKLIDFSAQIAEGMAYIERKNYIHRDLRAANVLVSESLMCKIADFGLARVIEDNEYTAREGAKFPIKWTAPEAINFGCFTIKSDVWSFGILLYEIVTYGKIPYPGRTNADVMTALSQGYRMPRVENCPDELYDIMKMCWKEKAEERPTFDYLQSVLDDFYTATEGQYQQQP
T3 sequence (P36888 27-993): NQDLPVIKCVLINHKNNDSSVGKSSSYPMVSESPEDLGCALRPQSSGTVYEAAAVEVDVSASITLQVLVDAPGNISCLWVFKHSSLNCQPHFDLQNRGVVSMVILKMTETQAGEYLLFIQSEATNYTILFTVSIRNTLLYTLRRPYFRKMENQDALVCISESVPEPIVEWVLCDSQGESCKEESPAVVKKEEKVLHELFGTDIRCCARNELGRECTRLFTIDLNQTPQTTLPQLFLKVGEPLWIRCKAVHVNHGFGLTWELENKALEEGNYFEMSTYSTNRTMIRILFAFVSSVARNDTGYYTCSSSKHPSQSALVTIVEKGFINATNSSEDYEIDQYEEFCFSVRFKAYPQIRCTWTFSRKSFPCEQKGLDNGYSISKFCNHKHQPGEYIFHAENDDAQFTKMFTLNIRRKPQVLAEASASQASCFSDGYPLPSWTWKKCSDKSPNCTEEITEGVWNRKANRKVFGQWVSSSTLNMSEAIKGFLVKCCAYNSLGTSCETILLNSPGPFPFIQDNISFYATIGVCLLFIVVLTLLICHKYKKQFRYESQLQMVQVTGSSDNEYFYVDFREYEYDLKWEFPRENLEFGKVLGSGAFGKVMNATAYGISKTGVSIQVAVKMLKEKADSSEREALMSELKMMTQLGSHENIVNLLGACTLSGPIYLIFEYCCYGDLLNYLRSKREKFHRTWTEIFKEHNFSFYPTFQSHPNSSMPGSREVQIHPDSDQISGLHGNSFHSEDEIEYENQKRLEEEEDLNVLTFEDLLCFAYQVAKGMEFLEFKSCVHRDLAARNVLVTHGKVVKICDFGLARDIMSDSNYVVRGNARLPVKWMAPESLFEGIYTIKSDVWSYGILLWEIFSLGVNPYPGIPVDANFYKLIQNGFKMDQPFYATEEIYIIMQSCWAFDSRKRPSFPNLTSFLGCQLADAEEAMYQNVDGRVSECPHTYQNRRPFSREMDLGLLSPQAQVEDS
T2 sequence (Q96GD4 whole entry): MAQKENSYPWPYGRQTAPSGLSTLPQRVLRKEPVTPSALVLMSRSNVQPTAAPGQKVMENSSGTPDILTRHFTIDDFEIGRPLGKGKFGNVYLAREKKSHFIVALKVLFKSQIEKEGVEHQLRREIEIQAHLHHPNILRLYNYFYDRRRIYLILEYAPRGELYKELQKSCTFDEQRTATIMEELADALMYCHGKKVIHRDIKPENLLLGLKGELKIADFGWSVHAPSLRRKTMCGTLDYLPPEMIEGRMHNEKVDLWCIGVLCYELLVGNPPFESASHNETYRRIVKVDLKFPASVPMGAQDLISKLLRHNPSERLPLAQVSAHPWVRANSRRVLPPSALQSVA
T4 sequence (P23458 whole entry): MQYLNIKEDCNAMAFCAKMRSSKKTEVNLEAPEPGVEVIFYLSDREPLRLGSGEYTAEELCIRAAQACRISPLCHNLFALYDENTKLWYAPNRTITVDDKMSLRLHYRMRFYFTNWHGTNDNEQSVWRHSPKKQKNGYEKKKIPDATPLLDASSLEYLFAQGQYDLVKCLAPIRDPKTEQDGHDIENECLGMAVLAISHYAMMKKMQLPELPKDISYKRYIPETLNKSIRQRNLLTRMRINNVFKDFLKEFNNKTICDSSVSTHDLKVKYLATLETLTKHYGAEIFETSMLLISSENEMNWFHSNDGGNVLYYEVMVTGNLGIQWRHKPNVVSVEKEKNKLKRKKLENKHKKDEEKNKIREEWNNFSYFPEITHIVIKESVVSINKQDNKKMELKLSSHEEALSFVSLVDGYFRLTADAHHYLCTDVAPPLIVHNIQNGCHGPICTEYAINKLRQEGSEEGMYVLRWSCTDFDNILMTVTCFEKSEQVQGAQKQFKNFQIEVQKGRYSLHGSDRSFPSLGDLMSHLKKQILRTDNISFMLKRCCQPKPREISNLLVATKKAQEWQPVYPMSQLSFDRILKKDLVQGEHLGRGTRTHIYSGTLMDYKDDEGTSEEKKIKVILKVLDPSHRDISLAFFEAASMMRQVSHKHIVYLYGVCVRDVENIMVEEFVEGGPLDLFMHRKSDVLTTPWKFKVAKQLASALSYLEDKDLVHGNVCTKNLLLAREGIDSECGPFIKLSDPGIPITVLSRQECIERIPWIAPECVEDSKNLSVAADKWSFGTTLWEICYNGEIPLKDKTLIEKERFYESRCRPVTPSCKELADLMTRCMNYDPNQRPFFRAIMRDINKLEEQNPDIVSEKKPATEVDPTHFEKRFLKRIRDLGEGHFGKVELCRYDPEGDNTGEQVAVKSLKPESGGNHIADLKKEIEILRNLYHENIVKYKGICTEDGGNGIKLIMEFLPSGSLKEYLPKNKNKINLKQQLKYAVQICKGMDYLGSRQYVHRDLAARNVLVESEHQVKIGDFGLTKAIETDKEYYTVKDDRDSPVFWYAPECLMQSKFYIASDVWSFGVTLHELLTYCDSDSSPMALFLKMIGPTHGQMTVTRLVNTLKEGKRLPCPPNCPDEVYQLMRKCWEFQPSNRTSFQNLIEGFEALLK
T7 sequence (P07947 whole entry): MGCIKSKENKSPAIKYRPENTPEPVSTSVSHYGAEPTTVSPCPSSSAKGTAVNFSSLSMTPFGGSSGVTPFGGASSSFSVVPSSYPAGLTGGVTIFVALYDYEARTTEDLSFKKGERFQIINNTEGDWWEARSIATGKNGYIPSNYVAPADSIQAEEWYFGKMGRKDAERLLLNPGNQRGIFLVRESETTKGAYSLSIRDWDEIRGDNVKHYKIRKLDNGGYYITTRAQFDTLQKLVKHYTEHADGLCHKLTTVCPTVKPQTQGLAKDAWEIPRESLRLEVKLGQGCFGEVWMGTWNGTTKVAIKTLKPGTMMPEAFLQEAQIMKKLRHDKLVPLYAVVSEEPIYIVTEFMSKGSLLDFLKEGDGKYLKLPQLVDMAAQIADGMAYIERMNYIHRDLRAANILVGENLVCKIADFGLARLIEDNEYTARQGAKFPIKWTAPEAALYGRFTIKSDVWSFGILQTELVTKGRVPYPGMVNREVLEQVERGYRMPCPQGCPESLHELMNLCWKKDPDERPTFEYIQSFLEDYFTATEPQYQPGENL

Cc1cc(/C=C/C#N)cc(C)c1Nc1ccnc(Nc2ccc(C#N)cc2)n1 [Rilpivirine, 4-[[4-[4-[(E)-2-cyanoethenyl]-2,6-dimethylanilino]pyrimidin-2-yl]amino]benzonitrile]
IC50 [1]: 3 to 8 µM
inhibition at 1 µM [2, 15]: 86%
Ki ([2]; cell free kinase assay): 130 nM
inhibitory activity against Aurora A [2, 16]: potently inhibits
inhibitory activity against Aurora B [3]: some inhibitory activity
inhibitory activity against FLT3 [4]: some inhibitory activity
inhibitory activity against JAK1 [5]: some inhibitory activity
inhibition at 1 µM [6]: 77%
inhibition at 1 µM [7, 15]: 78%
inhibitory activity against PIM1 [7, 16]: some inhibitory activity
inhibition at 1 µM [8]: 83%
cell cycle arrest ([9]; 5, 10 and 20 µM for 24 hrs, p53 null): arrested in the G2/M Phase
numbers of cells in G2/M ([9]; 24 hour treatment, versus diluent only): approximately doubled
cell cycle arrest [10]: arrests both of these cell lines in the G2/M phase in a dose-dependent manner
cell cycle arrest [11]: G2/M arrest increased with increasing concentrations of the drug
cell cycle arrest [12]: induce G2/M arrest
cell cycle arrest [13]: arrest T47D breast cancer cells in G2/M phase
cell cycle arrest ([14]; 10 µM): arrests the cells in the G1 phase
cell cycle distribution ([14]; 20 µM): increased number of cells accumulated in Sub-G1 phase
